The record followed here is PubChem BioAssay (NCI).

SMILES strings stand for the structures.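 The compound was tested at five concentrations on cells cultured in 96-well plates, with a 48-hour exposure period. Here, GI50 denotes the concentration required for 50% inhibition of growth. The concentration for full growth arrest is given as TGI.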

What all share (test): growth of human tumour cells (NCI), 48 h
The subject of test [1] is NCI-H460 lung.
The test system of test [2] is U251 CNS.
In test [3] the test system is CCRF-CEM leukemia.
Test [4] concerns NCI-H226 lung.
The test system of test [5] is COLO 205 colon.
The test system of test [6] is UACC-257 melanoma.
In test [7] the test system is OVCAR-3 ovarian.
Test [8] relates to HCC-2998 colon.
In test [9] the test system is EKVX NSCLC.
In test [10] the test system is SK-MEL-28 melanoma.

Consider `CN[C@@H](C)C(=O)N[C@H]1CN(C(=O)CC(C)C)CC[C@H]2CC[C@@H](C(=O)NC(c3ccccc3)c3ccccc3)N2C1=O`, for which the GI50 in [1] was above 100 µM; in test [2], above 100 µM; in [3] it was above 100 µM; in [4] it was above 100 µM; in [5], above 79.8 µM; in [6], above 74.3 µM. Moreover, the GI50 in [7] is above 89.7 µM; in test [8], above 100 µM; in test [9], above 100 µM; in test [10], above 100 µM. Also, the TGI in test [1], in test [2], in [3], in [4], in [5] and in [6] was above 100 µM throughout. In addition, the TGI in test [7], in test [8], in test [9] and in test [10] was above 100 µM in each case.
For `COc1cc(-c2nc(NC(C)=O)sc2-c2ccnc(NCCNS(=O)(=O)c3ccccc3)n2)ccc1Cl`, the GI50 in test [1] was 3.08 µM; in test [2] it was 5.22 µM; in test [3], 4.03 µM; in test [4] it was 6.45 µM; in test [5] it was 2.21 µM; in [6] it was 5.37 µM. In addition, the GI50 in [7] is 3.09 µM; in test [8], 20.9 µM; in test [9], 5.25 µM; in test [10] it was 3.71 µM. The TGI is 10.8 µM in [1]; above 100 µM in test [2]; above 100 µM in [3]; above 100 µM in test [4]; 6.01 µM in test [5]; above 100 µM in test [6]. Further, the TGI in [7] was 32.6 µM; in [8], above 100 µM; in [9], above 100 µM; in test [10], above 100 µM.
For `Nc1nc(Cl)cc(NCCCCCNc2cc(Cl)nc(N)n2)n1`, the TGI in test [1], in test [2], in [3], in test [4], in [5] and in test [6] was above 100 µM each time. The TGI in test [7], in test [8], in test [9] and in test [10] was above 100 µM throughout.
Regarding `COC(=O)[C@H]1[C@@H](O)[C@@]2(O)c3c(OC)cc(O[C@@H]4O[C@@H]([C@H](O)CO)CO[C@H]4OC)cc3O[C@@]2(c2ccc(OC)cc2)[C@@H]1c1ccccc1`, the GI50 was 0.004 µM in test [1]; 0.00352 µM in [2]; 0.00545 µM in test [3]; 0.00813 µM in test [4]; 0.00309 µM in [5]; 0.00627 µM in test [6]. Further, the GI50 is 0.00378 µM in test [7], 0.00297 µM in [8], 0.00659 µM in [9] and 0.00321 µM in test [10]. Moreover, the TGI in test [1] turned out to be 0.0695 µM; in test [2], 0.0202 µM; in test [3] it was 0.125 µM; in [4], 0.078 µM; in [5] it was 0.00989 µM; in test [6] it was 0.0451 µM. For the same compound, the TGI in test [7] stood at 0.035 µM; in [8], 0.0164 µM; in [9] it was 0.105 µM; in [10], 0.0119 µM.
As for `N.N.N.N.O=NN1CCCCCC1(P(=O)([O-])[O-])P(=O)([O-])[O-].[Pt+4].[Pt+4]`, the GI50 in test [1], in test [2], in test [3], in test [4], in test [5] and in test [6] was above 100 µM each time. For the same compound, the GI50 in test [7], in test [8], in test [9] and in test [10] was above 100 µM each time. For the same compound, the TGI in [1], in [2], in test [3], in test [4], in test [5] and in [6] was above 100 µM in each case. In addition, the TGI in test [7], in [8], in test [9] and in test [10] was above 100 µM each time.
Take `C[C@@H](N)C1CCC(C(=O)Nc2ccncc2)CC1` (some centres not stated): the GI50 in test [1] is above 100 µM; in [2], above 100 µM; in [3], 51.2 µM; in test [4] it was above 100 µM; in [5], above 100 µM; in test [6], above 100 µM. Moreover, the GI50 is above 100 µM in test [7], above 100 µM in test [8], 15 µM in test [9] and above 100 µM in test [10]. For the same compound, the TGI in test [1], in test [2], in test [3], in test [4], in test [5] and in [6] was above 100 µM throughout. The TGI in [7], in test [8], in test [9] and in test [10] was above 100 µM throughout.
On to `COc1ccccc1-c1cc(/C=C2\C(=O)Nc3ncc(Br)cc32)cc(Br)c1O`, for which the GI50 in test [1] was 11.6 µM; in test [2] it was 12.7 µM; in test [3] it was 9.76 µM; in test [4] it was 12.5 µM; in test [5], 20.2 µM; in test [6], 16.4 µM. The GI50 in test [7] was 9.51 µM; in [8], above 25 µM; in test [9] it was 11.2 µM; in test [10] it was 14.8 µM. In addition, the TGI in [1], in test [2], in test [3], in test [4], in [5] and in test [6] was above 25 µM each time. For the same compound, the TGI in [7], in test [8], in [9] and in test [10] was above 25 µM in each case.
Consider `COc1cccc(NC(=O)C(C)(C)C)c1C=O`, for which the TGI in [1], in [2], in test [3], in test [4], in test [5] and in [6] was above 100 µM each time. In addition, the TGI in test [7], in test [8], in test [9] and in test [10] was above 100 µM throughout.
Turning to `C/C1=C/C(=O)O[C@@H]2C[C@@H](CC[C@H](C)/C=C\C=C\CC1)O[C@@](O)([C@@H]1CSC(=O)N1CO)C2`, the GI50 in test [1] was 0.241 µM; in test [2], 0.0992 µM; in [3], 0.0872 µM; in test [4] it was 0.104 µM; in test [5], 0.0374 µM; in test [6], 0.42 µM. In addition, the GI50 was 0.122 µM in [7], 13 µM in test [8], 0.144 µM in test [9] and 0.164 µM in test [10]. Further, the TGI was 34.1 µM in test [1]; 13.6 µM in test [2]; above 41.4 µM in [3]; above 100 µM in [4]; 0.146 µM in [5]; 16 µM in test [6]. For the same compound, the TGI in test [7] is 0.512 µM; in [8], 65.4 µM; in test [9] it was above 100 µM; in [10], 0.603 µM.
`O=C(NCCO)c1cc2c(cn1)[nH]c1ccccc12`: the TGI in [1], in test [2], in test [3], in test [4], in [5] and in test [6] was above 100 µM each time. Further, the TGI in [7] was above 100 µM; in [8], 33.2 µM; in test [9], above 100 µM; in [10], above 100 µM.
For the compound `C=CCCCn1ccc2ccccc21`, the TGI in test [1], in test [2], in [3], in test [4], in test [5] and in [6] was above 100 µM each time. Besides, the TGI in test [7], in test [8], in test [9] and in test [10] was above 100 µM throughout.
For `c1ccc(N=c2snc3scc(-c4ccccc4)n23)cc1`, the TGI is 68.3 µM in test [2]; above 100 µM in [3]; above 100 µM in [4]; 80.6 µM in test [5]; above 100 µM in test [6]; 62.2 µM in test [7]. Besides, the TGI in test [8], in test [9] and in [10] was above 100 µM each time.
For the compound `Cc1ccc2c(c1)C(C)Cc1c(ncnc1-n1cnc3cc(C)ccc31)N2C` (configuration not stated), the GI50 in test [1] is 0.034 µM; in test [2] it was 0.0362 µM; in test [3], 0.0362 µM; in [4], 0.0551 µM; in test [5] it was 0.0224 µM; in [6], 5.34 µM. The GI50 in test [8] is 0.0422 µM; in [9], 0.0634 µM; in [10], 0.0743 µM. Besides, the TGI in [1] worked out at 4.39 µM; in test [2], 12.1 µM; in [3], 17.6 µM; in test [4], 22.8 µM; in [5], 0.0553 µM; in test [6], 21.4 µM. The TGI in test [8] came to 16.3 µM; in test [9] it was 23.8 µM; in test [10] it was 15.8 µM.
As for `Cc1ccc(-n2c3nc(=O)n(C)c(=O)c-3nc3ccccc32)cc1`, the TGI in test [1] turned out to be 17.3 µM; in test [2], 39.8 µM; in test [3] it was 49.4 µM; in test [4] it was 68.7 µM; in test [5], 14.8 µM; in test [6], 26.9 µM. The TGI amounted to 17.6 µM in test [7], 20.6 µM in test [8] and 38.4 µM in test [9].
Turning to `COc1ccc(CCN2CCCN3C2=Nc2ccccc2S3(=O)=O)cc1`, the GI50 in [1] is 0.429 µM; in test [2], 0.388 µM; in [3], 0.444 µM; in [4], 8.25 µM; in test [5] it was 0.329 µM; in test [8] it was 1.45 µM. Besides, the GI50 in [9] is 18.8 µM; in test [10], 0.805 µM. Further, the TGI in test [1] is 44.1 µM; in test [2], above 100 µM; in test [3], above 100 µM; in test [4] it was above 100 µM; in [5] it was 1.48 µM; in [8] it was above 100 µM. Moreover, the TGI in [9] and in [10] was above 100 µM throughout.
`CCSC(SCC)c1cc2c(cc1Br)OCO2`: the TGI in [1] is 49.4 µM; in [2] it was 32.9 µM; in test [3], 62.4 µM; in test [4], 81.1 µM; in test [5] it was 59.3 µM; in test [7], 57.3 µM. Besides, the TGI in test [8] was 67.5 µM; in test [9], above 100 µM; in test [10] it was above 100 µM.
Turning to `CSc1nc(NC2OCC(OC(C)=O)C(OC(C)=O)C2OC(C)=O)c(N=C(C)C(C)=O)c(=O)n1C` (configuration not stated), the TGI in test [1], in [2], in test [3], in test [4], in test [5] and in test [6] was above 100 µM throughout. In addition, the TGI in [7], in test [8] and in test [9] was above 100 µM throughout.
In the case of `O=C1/C(=C\c2ccc(F)cc2)CN(C(=O)c2ccc([N+](=O)[O-])cc2)C/C1=C\c1ccc(F)cc1`, the GI50 in test [1] is 4.26 µM; in test [2] it was 1.55 µM; in test [3], 1.64 µM; in test [5] it was 3.17 µM; in test [6], 4.17 µM; in [7], 2.69 µM. In addition, the GI50 in test [8] is 1.95 µM; in [10] it was 3.72 µM. The TGI in test [1] was above 40.4 µM; in test [2], 3.97 µM; in [3], above 42.6 µM; in test [4], above 21.4 µM; in test [5] it was 12.7 µM; in [6], 28.1 µM. The TGI in test [7] came to 7.53 µM; in test [8], 3.76 µM; in test [10], 15.1 µM.
